Calls of active or inactive are those of the source. The rule behind the calls is not given here.
What was measured:
[1] = target: T1, Heat shock protein HSP90 (Homo sapiens) (UniProt P07900+P08238); experiment: Inhibition of HSP90 in human HL60 cells assessed as downregulation of phosphorylated Akt expression at 1 uM by Western blot analysis; assay type: cell-based; details: TDE = time-dependent effect
[2] = target: T1, Heat shock protein HSP90 (Homo sapiens); experiment: Inhibition of HSP90 in human HL60 cells assessed as downregulation of phosphorylated STAT3 expression at 1 uM by Western blot analysis; assay type: cell-based; details: TDE = time-dependent effect
[3] = target: T1, Heat shock protein HSP90 (Homo sapiens); experiment: Inhibition of HSP90 in human HL60 cells assessed as downregulation of phosphorylated Akt expression after 24 hrs by Western blot analysis; assay type: cell-based
[4] = target: T1, Heat shock protein HSP90 (Homo sapiens); experiment: Inhibition of HSP90 in human HL60 cells assessed as induction of HSP70 expression after 24 hrs by Western blot analysis; assay type: cell-based
[5] = target: T1, Heat shock protein HSP90 (Homo sapiens); experiment: Inhibition of HSP90 in human HL60 cells assessed as induction of HSP70 expression at 1 uM by Western blot analysis; assay type: cell-based; details: TDE = time-dependent effect
[6] = target: T1, Heat shock protein HSP90 (Homo sapiens); experiment: Inhibition of HSP90 in human HL60 cells assessed as downregulation of phosphorylated STAT3 expression after 24 hrs by Western blot analysis; assay type: cell-based
[7] = target: Heat shock protein HSP 90-alpha (Homo sapiens, UniProt P07900); experiment: Inhibition of FITC-geldanamycin binding to HSP90alpha (unknown origin) after 3 hrs by fluorescence polarization assay
A549 = experiment: Antiproliferative activity against human A549 cells after 48 hrs by sulforhodamine B assay; assay type: functional
NCI-H1975 = experiment: Antiproliferative activity against human NCI-H1975 cells after 48 hrs by sulforhodamine B assay; assay type: functional; details: NCI-H1975, 48 h
HCT-116 = experiment: Antiproliferative activity against human HCT116 cells after 48 hrs by sulforhodamine B assay; assay type: functional; details: HCT-116, 48 h
HL-60 = experiment: Antiproliferative activity against human HL60 cells after 48 hrs by sulforhodamine B assay; assay type: functional
[8] = target: T2, Histone deacetylase (Homo sapiens) (UniProt Q13547+O15379+Q9UBN7+Q92769+Q9UQL6+Q8WUI4+Q9BY41+Q96DB2+P56524+Q9UKV0+Q969S8); experiment: Inhibition of HDAC in human HL60 cells assessed as upregulation of acetylated histone H3 levels at 1 uM after 24 hrs by Western blot analysis; assay type: cell-based
[9] = target: T2, Histone deacetylase (Homo sapiens); experiment: Inhibition of HDAC in human HL60 cells assessed as upregulation of acetyl-alpha-tubulin levels at 1 uM after 24 hrs by Western blot analysis; assay type: cell-based
Histone deacetylase = assay type: protein assay, Homo sapiens

| inhibition [1] | inhibition [2] | inhibition [3] | inhibition [4] | inhibition [5] | inhibition [6] | SMILES | IC50 [7] [nM] | GI50 (A549) [nM] | GI50 (NCI-H1975) [nM] | GI50 (HCT-116) [nM] | GI50 (HL-60) [nM] | inhibition [8] | inhibition [9] | GI50 (A549; Homo sapiens, A549, 48 h) [nM] | GI50 (HL-60; Homo sapiens, HL-60, 48 h) [nM] | IC50 (Histone deacetylase) [nM] |
| --- | --- | --- | --- | --- | --- | --- | --- | --- | --- | --- | --- | --- | --- | --- | --- | --- |
| Tde | Tde | Dose-dependent effect | Dose-dependent effect | Tde | Dose-dependent effect | CC(C)c1cc(C(=O)N2CCc3cc(NC(=O)CCCCCCC(=O)NO)ccc32)c(O)cc1O | – | – | – | – | – | – | – | – | – | – |
| – | – | – | – | – | – | O=C(CCCCCCC(=O)Nc1ccccc1)NO [VORINOSTAT] | > 1000 | 1020 | 1410 | 150 | 1740 | – | – | – | – | – |
| – | – | – | – | – | – | COc1c(C)cnc(Cn2cnc3c(Cl)nc(N)nc32)c1C [BIIB021] | – | – | 380 | 150 | – | Active | Active | 330 | 590 | > 1000 |

Reference: ChEMBL document CHEMBL4229357, “1-Aroylindoline-hydroxamic acids as anticancer agents, inhibitors of HSP90 and HDAC” (Eur J Med Chem, 2018)
